What all share (type): cell-based
In series [1] the test system is IL-1β induced IL-8 production by human peripheral blood mononuclear cells (PBMC). The series can be described thus: IL-1β induced IL-8 production by human peripheral blood mononuclear cells (IL-8 ELISA). Conditions: r-hIL-1β 1 ng/ml; 48 hours total incubation. The procedure:
PBMC was purified from heparinized blood of normal human donors. Following gradient centrifugation with-Lymphoprep™ (Nycomed Pharma, Oslo, Norway), the mononuclear cells were diluted to 2×10^6 cells/ml in LPS-free RPMI 1640 medium (Gibco Cat.No. 6187-010) containing 1% sterile filtered heat-inactivated fetal calf serum and penicillin (10,000 IE/ml), streptomycin (10 mg/ml) and gentamycin (2.5 mg/ml). Cells were cultured in 24 wells Nunc Micro Plates (Nunc, Denmark) and in the presence of different concentration of IT9302 (0, 1 μg, 100 ng, 10 ng, 1 ng, 0.1 ng, 0.01 ng/ml) for 24 hours. Following 24 hours of incubation, another dose of IT9302 was added once more, and 1 hour later r-hIL-1β (1 ng/ml) was added to the cell cultures. Supernatants were collected after a total of 48 hours of incubation, and the concentration of the secreted IL-8 was measured by IL-8 ELISA by using an IL-8 ELISA Kit (Dainippon Pharmaceutical Co. Ltd, Osaka, Japan). Briefly, standards and cell supernatants were incubated for one hour and in duplicates at 20° C. on a micro-plate shaker. Then after washing, a second antibody was added for one hour, followed by one hour of incubation with peroxidase-labelled goat anti-rabbit IgG. […] Optical density (OD) was measured in an ELISA reader at 490 nm. IL-8 concentration was calculated by a calibration curve of absorbance of unknown vs concentrations of IL-8 standards. […]
Background: ELISA stands for enzyme-linked immunosorbent assay.

Series [2] deals with IL-4 production by cultured normal human CD4+ T cells. In words: IL-4 production by CD4+ T lymphocytes (ECL-Western blotting). Conditions: 100 ng/ml, 3 days, cytosolic fractions. The procedure: CD4+ T lymphocytes were purified from heparinized normal human blood. Following Lymphoprep™ (Nycomed Pharma, Oslo, Norway) gradient centrifugation, the mononuclear cells were further sorted at 4° C. using Dynabeads (Dynal AS, Norway) coated with monoclonal anti-CD4 antibodies. The beads were detached by adding polyclonal anti-mouse antibody (Dynal AS, Norway). The purity of the positively selected cells were higher than 99% as judged by FACS analysis. […]
Cells or freeze-dried cell culture supernatants were used for IL-4 protein content determination. […] The blots were then incubated with a polyclonal goat anti-human IL-4 antibody (R&D Systems, UK) followed by a horseradish peroxidase-labelled secondary antibody (Cat.no. RPN 2106 ECL, Amersham, UK), and the immunostaining was detected by exposing a film (Kodak X-OMAT-S, USA) for 90 seconds.
Thus, CD4+ T cells, purified as described in “Methods for T cell chemotaxis”, and cultured as described in the section “Determination of IL-4 production by CD4+ T lymphocytes”, were stimulated for 3 days with IT9302 (10 ng/ml) or IL-10 (100 ng/ml). Cytosolic fractions were collected and analyzed for their IL-4 content using Western blotting (FIG. 11) and a goat anti-human IL-4 polyclonal antibody.
In general terms: A western blot detects proteins with antibodies after separation by electrophoresis.

The subject of series [3] is IRAP production by human monocytes. In words: Production of interleukin-1 receptor antagonist protein (IRAP) by human monocytes (IRAP ELISA). Conditions: monocytes stimulated 24 hours. How it is done: PBMC was purified as described above. PBMC was cultured in RMPI 1640, 10% sterile heat-inactivated fetal calf serum (including penicillin 10,000 IE/ml, streptomycin 10 mg/ml, gentamycin 2.5 mg/ml) and the cell concentration was 5×10^6 cells/ml. The monocytes were then purified by standard plastic adherence technique. Monocytes were then cultured in RPMI 1640 with 2% FCS (2.5×10^6 cells/ml) and with different dilutions of rhIL-10 or IT9302. The cells were stimulated for 24 hours and the supernatants were collected for IRAP determination. IRAP ELISA was carried out by using Human IL-1ra Quantikin Immunoassay Kit from R&D Systems Europe Ltd. (Cat.No. DRA 00, Abingdon, Oxon, UK).
The test was performed as described in “Determination of IRAP concentration”.

The subject of series [4] is class II MHC molecule expression on human monocytes. The series can be described thus: Class II MHC antigen expression on monocytes (rosetting with HLA class II Dynabeads). How it is done: PBMC was purified as described above and monocytes isolated by plastic adherence technique. Monocytes were then cultured in RPMI 1640 with 2% FCS including penicillin 10,000 IE/ml, streptomycin 10 mg/ml, gentamycin 2.5 mg/ml at a cell concentration of 3×10^6/ml. Cells were stimulated for 40 hours in microwells (Nunc, Denmark) with 100 ng/ml rhIL-10, or IT9302 1 μg/ml, 100 ng/ml, 10 ng/ml. At the end of stimulation, the supernatants were removed and the cells were detached from the plastic by freezing at −20° C. for 20 minutes. The cells were collected in 1 ml of cold HBSS with 1% FCS and sorted at 20° C. by using 50 μl/ml Dynabeads M 450 coated with monoclonal antibody for HLA class II β chain (Cat. No. 210.03). After 20 minutes of incubation, the cells were washed 3 times with cold HBSS with 1% FCS and collected on a magnetic separation device. The cells were diluted in the above buffer and stained with methylene blue, and the resetting cells (cells carrying Dynabeads with HLA class II mAb) were counted.

Series [5] has as its system spontaneous IL-8 production by human monocytes. The series can be described thus: Spontaneous IL-8 production by purified cultured human monocytes (IL-8 ELISA). Conditions: any concentration of IT9302 between 0.1 and 1000 ng/ml; this and following examples.

We go through three substances from US6599501B1, “Immunomodulators” (Steeno Research Group A/S, priority 1994, dated 2003).

Take “NH2-Ser-Pro-Gly-Gln-Gly-Thr-Gln-Ser-Glu-COOH (H-SPGQGTQSE-OH) [IT9301, nonapeptide from the N-terminal end of hIL-10, control for negative results]”: in series [1], the “inhibition of IL-1β induced production of IL-8” value is reported as “did not induce any inhibition at all”.
In the case of “rhIL-10: Recombinant human interleukin 10 obtained from Pepro Tech Inc.”, the “production of IL-4 by CD4+ T cells” value in series [2] was “induce the production of IL-4”. Also, the “induction of IRAP production” value in series [3] is “induction of IRAP”. Also, the “inhibition of class II MHC expression” value in series [4] (40 hours stimulation) is listed as “inhibits class II MHC expression”. Also, the “Number of rosetting monocytes” value in series [4] (stimulation 100 ng/ml, 40 hours) was 4.6 ± 1.4 × 10^4.
“H-AYMTMKIRN-OH [IT9302, NH2-Ala-Tyr-Met-Thr-Met-Lys-Ile-Arg-Asn-COOH]”: the “effect on viability of cells” value in series [5] was “did not in this or in the following examples affect viability”.
